Data reported in ChEMBL document CHEMBL1201862, “PubChem BioAssay data set” (2004).
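Interpolation was linear, between the two tested concentrations surrounding the appropriate level; five concentrations were tested over 48 hours in 96-well plates. At the GI50, growth is halved.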 Active and inactive are the calls of the source. No stated cut-off is given here; in the data, active = GI50 up to about 1.1 µM and inactive = higher.

Assays:
Assay in all cases: NCI-60 cell line screen, 48 h
786-0 = tested on: 786-0
A498 = tested on: A498
A549 = tested on: A549
ACHN = tested on: ACHN
CAKI-1 = tested on: CAKI-1
CCRF-CEM = tested on: CCRF-CEM
COLO 205 = tested on: COLO 205
DLD-1 = tested on: DLD-1
DMS-114 = tested on: DMS-114
DMS-273 = tested on: DMS-273
EKVX = tested on: EKVX
HCC 2998 = tested on: HCC 2998
HCT-116 = tested on: HCT-116
HCT-15 = tested on: HCT-15
HL-60 = tested on: HL-60
HOP-18 = tested on: HOP-18
HOP-62 = tested on: HOP-62
HOP-92 = tested on: HOP-92
HT-29 = tested on: HT-29
IGROV-1 = tested on: IGROV-1
K562 = tested on: K562
KM-20L2 = tested on: KM-20L2
KM12 = tested on: KM12
LOX IMVI = tested on: LOX IMVI
LXFL 529 = tested on: LXFL 529
M14 = tested on: M14
M19-MEL = tested on: M19-MEL
MOLT-4 = tested on: MOLT-4
Malme-3M = tested on: Malme-3M
NCI-H226 = tested on: NCI-H226
NCI-H23 = tested on: NCI-H23
NCI-H460 = tested on: NCI-H460
NCI-H522 = tested on: NCI-H522
OVCAR-3 = tested on: OVCAR-3
OVCAR-4 = tested on: OVCAR-4
OVCAR-5 = tested on: OVCAR-5
OVCAR-8 = tested on: OVCAR-8
RPMI-8226 = tested on: RPMI-8226
RXF 393 = tested on: RXF 393
RXF 631 = tested on: RXF 631
SF-268 = tested on: SF-268
SF-295 = tested on: SF-295
SF-539 = tested on: SF-539
SK-MEL-2 = tested on: SK-MEL-2
SK-MEL-5 = tested on: SK-MEL-5
SK-OV-3 = tested on: SK-OV-3
SN12C = tested on: SN12C
SNB-19 = tested on: SNB-19
SNB-75 = tested on: SNB-75
SNB-78 = tested on: SNB-78
SW-620 = tested on: SW-620
TK-10 = tested on: TK-10
U-251 = tested on: U-251
UACC-257 = tested on: UACC-257
UACC-62 = tested on: UACC-62
UO-31 = tested on: UO-31
XF498 = tested on: XF498
SK-MEL-28 = tested on: SK-MEL-28
SR = tested on: SR

N#Cc1c(C(N)=O)ncn1Cc1ccccc1
GI50 (786-0): > 100 µM (inactive)
GI50 (A498): > 100 µM (inactive)
GI50 (A549): > 100 µM (inactive)
GI50 (ACHN): > 100 µM (inactive)
GI50 (CAKI-1): > 100 µM (inactive)
GI50 (CCRF-CEM): > 100 µM (inactive)
GI50 (COLO 205): > 100 µM (inactive)
GI50 (DLD-1): > 100 µM (inactive)
GI50 (DMS-114): > 100 µM (inactive)
GI50 (DMS-273): > 100 µM (inactive)
GI50 (EKVX): > 100 µM (inactive)
GI50 (HCC 2998): > 100 µM (inactive)
GI50 (HCT-116): > 100 µM (inactive)
GI50 (HCT-15): > 100 µM
GI50 (HL-60): > 100 µM (inactive)
GI50 (HOP-18): > 100 µM (inactive)
GI50 (HOP-62): > 100 µM (inactive)
GI50 (HOP-92): > 100 µM (inactive)
GI50 (HT-29): > 100 µM (inactive)
GI50 (IGROV-1): > 100 µM (inactive)
GI50 (K562): > 100 µM (inactive)
GI50 (KM-20L2): > 100 µM (inactive)
GI50 (KM12): > 100 µM (inactive)
GI50 (LOX IMVI): > 100 µM (inactive)
GI50 (LXFL 529): > 100 µM (inactive)
GI50 (M14): > 100 µM (inactive)
GI50 (M19-MEL): > 100 µM (inactive)
GI50 (MOLT-4): > 100 µM (inactive)
GI50 (Malme-3M): > 100 µM (inactive)
GI50 (NCI-H226): > 100 µM (inactive)
GI50 (NCI-H23): > 100 µM (inactive)
GI50 (NCI-H460): > 100 µM (inactive)
GI50 (NCI-H522): > 100 µM (inactive)
GI50 (OVCAR-3): > 100 µM (inactive)
GI50 (OVCAR-4): > 100 µM (inactive)
GI50 (OVCAR-5): > 100 µM (inactive)
GI50 (OVCAR-8): > 100 µM (inactive)
GI50 (RPMI-8226): > 100 µM (inactive)
GI50 (RXF 393): > 100 µM (inactive)
GI50 (RXF 631): > 100 µM (inactive)
GI50 (SF-268): > 100 µM (inactive)
GI50 (SF-295): > 100 µM (inactive)
GI50 (SF-539): > 100 µM (inactive)
GI50 (SK-MEL-2): > 100 µM (inactive)
GI50 (SK-MEL-5): > 100 µM (inactive)
GI50 (SK-OV-3): > 100 µM (inactive)
GI50 (SN12C): > 100 µM (inactive)
GI50 (SNB-19): > 100 µM (inactive)
GI50 (SNB-75): > 100 µM (inactive)
GI50 (SNB-78): > 100 µM (inactive)
GI50 (SW-620): > 100 µM (inactive)
GI50 (TK-10): > 100 µM (inactive)
GI50 (U-251): > 100 µM (inactive)
GI50 (UACC-257): > 100 µM (inactive)
GI50 (UACC-62): > 100 µM (inactive)
GI50 (UO-31): > 100 µM (inactive)
GI50 (XF498): > 100 µM (inactive)

CCOC(=O)c1cc(-c2ccc(-c3cc(C(=O)OCC)c(C#N)c(N)c3C#N)cc2)c(C#N)c(N)c1C#N
GI50 (786-0): > 100 µM (inactive)
GI50 (A549): > 100 µM (inactive)
GI50 (ACHN): > 100 µM (inactive)
GI50 (CAKI-1): > 100 µM (inactive)
GI50 (CCRF-CEM): > 100 µM (inactive)
GI50 (COLO 205): > 100 µM (inactive)
GI50 (DLD-1): > 100 µM (inactive)
GI50 (DMS-114): > 100 µM (inactive)
GI50 (DMS-273): > 100 µM (inactive)
GI50 (EKVX): > 100 µM (inactive)
GI50 (HCC 2998): > 100 µM (inactive)
GI50 (HCT-116): > 100 µM (inactive)
GI50 (HCT-15): > 100 µM
GI50 (HL-60): > 100 µM (inactive)
GI50 (HOP-18): > 100 µM (inactive)
GI50 (HOP-62): > 100 µM (inactive)
GI50 (HT-29): > 100 µM (inactive)
GI50 (IGROV-1): > 100 µM (inactive)
GI50 (K562): > 100 µM (inactive)
GI50 (KM-20L2): > 100 µM (inactive)
GI50 (KM12): > 100 µM (inactive)
GI50 (LOX IMVI): > 100 µM (inactive)
GI50 (LXFL 529): > 100 µM (inactive)
GI50 (M14): > 100 µM (inactive)
GI50 (M19-MEL): > 100 µM (inactive)
GI50 (MOLT-4): > 100 µM (inactive)
GI50 (Malme-3M): > 100 µM (inactive)
GI50 (NCI-H226): > 100 µM (inactive)
GI50 (NCI-H23): > 100 µM (inactive)
GI50 (NCI-H460): > 100 µM (inactive)
GI50 (NCI-H522): > 100 µM (inactive)
GI50 (OVCAR-3): > 100 µM (inactive)
GI50 (OVCAR-4): > 100 µM (inactive)
GI50 (OVCAR-5): > 100 µM (inactive)
GI50 (OVCAR-8): > 100 µM (inactive)
GI50 (RPMI-8226): > 100 µM (inactive)
GI50 (RXF 393): > 100 µM (inactive)
GI50 (RXF 631): > 100 µM (inactive)
GI50 (SF-268): > 100 µM (inactive)
GI50 (SF-295): > 100 µM (inactive)
GI50 (SF-539): > 100 µM (inactive)
GI50 (SK-MEL-28): > 100 µM (inactive)
GI50 (SK-MEL-2): > 100 µM (inactive)
GI50 (SK-OV-3): > 100 µM (inactive)
GI50 (SN12C): > 100 µM (inactive)
GI50 (SNB-19): > 100 µM (inactive)
GI50 (SNB-78): > 100 µM (inactive)
GI50 (SR): > 100 µM (inactive)
GI50 (SW-620): > 100 µM (inactive)
GI50 (TK-10): > 100 µM (inactive)
GI50 (U-251): > 100 µM (inactive)
GI50 (UACC-257): > 100 µM (inactive)
GI50 (UACC-62): > 100 µM (inactive)
GI50 (UO-31): > 100 µM (inactive)
GI50 (XF498): > 100 µM (inactive)

O=S(=O)(N/N=C/c1c(Cl)cccc1Cl)c1ccccc1
GI50 (A498): > 100 µM (inactive)
GI50 (A549): > 100 µM (inactive)
GI50 (CCRF-CEM): 66.1 µM (inactive)
GI50 (COLO 205): > 100 µM (inactive)
GI50 (DLD-1): > 100 µM (inactive)
GI50 (DMS-114): > 100 µM (inactive)
GI50 (DMS-273): > 100 µM (inactive)
GI50 (EKVX): > 100 µM (inactive)
GI50 (HCC 2998): > 100 µM (inactive)
GI50 (HCT-116): > 100 µM (inactive)
GI50 (HCT-15): > 100 µM
GI50 (HL-60): 29.9 µM (inactive)
GI50 (HOP-18): > 100 µM (inactive)
GI50 (HOP-62): > 100 µM (inactive)
GI50 (HOP-92): > 100 µM (inactive)
GI50 (HT-29): > 100 µM (inactive)
GI50 (IGROV-1): > 100 µM (inactive)
GI50 (K562): > 100 µM (inactive)
GI50 (KM-20L2): > 100 µM (inactive)
GI50 (KM12): > 100 µM (inactive)
GI50 (LOX IMVI): > 100 µM (inactive)
GI50 (LXFL 529): > 100 µM (inactive)
GI50 (M14): > 100 µM (inactive)
GI50 (M19-MEL): > 100 µM (inactive)
GI50 (MOLT-4): 91.4 µM (inactive)
GI50 (Malme-3M): > 100 µM (inactive)
GI50 (NCI-H226): > 100 µM (inactive)
GI50 (NCI-H23): > 100 µM (inactive)
GI50 (NCI-H460): > 100 µM (inactive)
GI50 (OVCAR-3): > 100 µM (inactive)
GI50 (OVCAR-4): > 100 µM (inactive)
GI50 (OVCAR-5): > 100 µM (inactive)
GI50 (OVCAR-8): > 100 µM (inactive)
GI50 (RPMI-8226): > 100 µM (inactive)
GI50 (RXF 393): 55.5 µM (inactive)
GI50 (RXF 631): > 100 µM (inactive)
GI50 (SF-268): > 100 µM (inactive)
GI50 (SF-295): > 100 µM (inactive)
GI50 (SF-539): > 100 µM (inactive)
GI50 (SK-MEL-28): > 100 µM (inactive)
GI50 (SK-MEL-2): > 100 µM (inactive)
GI50 (SK-MEL-5): > 100 µM (inactive)
GI50 (SK-OV-3): > 100 µM (inactive)
GI50 (SN12C): > 100 µM (inactive)
GI50 (SNB-75): 31.3 µM (inactive)
GI50 (SNB-78): > 100 µM (inactive)
GI50 (SR): > 100 µM (inactive)
GI50 (SW-620): > 100 µM (inactive)
GI50 (TK-10): > 100 µM (inactive)
GI50 (U-251): 50.7 µM (inactive)
GI50 (UACC-257): > 100 µM (inactive)
GI50 (UACC-62): 97.7 µM (inactive)
GI50 (UO-31): > 100 µM (inactive)
GI50 (XF498): 68.4 µM (inactive)
